According to patent US12195482B1 (Arcus Biosciences, Inc., priority 2022, dated 2025):
pIC50: −log10 of the molar value.

Experiments:
p-AXL = target: T1, p-AXL (Homo sapiens, UniProt P30530); experiment: Axl phosphorylation inhibition ELISA in HEK293T cells transfected with NanoLuc-tagged AXL; assay type: cell-based; details: 1 h compound incubation, media (OptiMEM)
T1 construct: expressed in transfected cells; host or cells: HEK293T
T1 sequence (P30530 26-894): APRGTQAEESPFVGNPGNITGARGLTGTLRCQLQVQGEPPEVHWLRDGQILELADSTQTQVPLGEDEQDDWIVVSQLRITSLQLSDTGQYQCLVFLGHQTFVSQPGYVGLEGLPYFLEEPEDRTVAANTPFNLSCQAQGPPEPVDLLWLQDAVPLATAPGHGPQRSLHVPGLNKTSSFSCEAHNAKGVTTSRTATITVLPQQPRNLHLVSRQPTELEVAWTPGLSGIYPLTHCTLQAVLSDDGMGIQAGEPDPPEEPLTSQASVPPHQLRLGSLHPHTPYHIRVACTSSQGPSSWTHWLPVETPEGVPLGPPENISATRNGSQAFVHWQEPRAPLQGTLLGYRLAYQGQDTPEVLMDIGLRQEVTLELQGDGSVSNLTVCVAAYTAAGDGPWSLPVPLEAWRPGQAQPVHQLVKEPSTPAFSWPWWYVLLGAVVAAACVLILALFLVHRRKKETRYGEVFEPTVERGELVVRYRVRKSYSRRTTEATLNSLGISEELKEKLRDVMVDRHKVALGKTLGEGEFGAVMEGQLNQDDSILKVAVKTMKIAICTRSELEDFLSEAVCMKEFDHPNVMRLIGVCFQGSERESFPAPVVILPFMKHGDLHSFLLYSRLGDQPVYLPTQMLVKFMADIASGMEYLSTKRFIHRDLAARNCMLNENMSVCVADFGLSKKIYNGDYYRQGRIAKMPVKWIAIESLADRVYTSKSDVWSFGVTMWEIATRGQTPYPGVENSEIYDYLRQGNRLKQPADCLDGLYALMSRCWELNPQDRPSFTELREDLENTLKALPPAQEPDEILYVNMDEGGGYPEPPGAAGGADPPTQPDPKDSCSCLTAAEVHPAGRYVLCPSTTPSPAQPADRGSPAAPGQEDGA
Summary of the method: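 HEK293T cells transiently transfected one day earlier with NanoLuc-tagged AXL were exposed to 22-point 2-fold compound dilutions for 1 h at 37° C (70,000 cells/well), then lysed. Lysates captured on anti-phospho-tyrosine coated plates for 2 h; bound p-AXL read by NanoLuc luminescence; IC50 from 4-parameter logistic fit.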

Axl = target: T2, Axl (Homo sapiens, UniProt P30530); experiment: Biochemical potency, HTRF KinEASE-TK kinase assay; set-up: purchased Invitrogen; details: 5 nM AXL, 700 μM ATP
T2 sequence (P30530 26-894): T1 sequence (P30530 26-894)
Summary of the method: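 Enzyme (AXL 5 nM; TYRO3 or MER 1 nM final) was preincubated with compound for 1 h at RT, then reacted for 2 h at RT with 800 nM biotinylated TK substrate and 700 µM ATP in HEPES pH 7.4, MgCl2, DTT, BSA, 1% DMSO. Percent activity came from the HTRF 665/620 ratio.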

| Structure (SMILES) | pIC50 (p-AXL) | pIC50 (Axl) |
| --- | --- | --- |
| CC(C)(O)c1cccnc1-c1ccc(-c2c[nH]c3ncc(-c4ccc5c(c4)CC[C@@H](N4C6COCC4C6)CC5)cc23)cc1 [Example 95, 2-[2-(4-{5-[(7S)-7-{3-Oxa-6-azabicyclo[3.1.1]heptan-6-yl}-6,7,8,9-tetrahydro-5H-benzo[7]annulen-2-yl]-1H-pyrrolo[2,3-b]pyridin-3-yl}phenyl)pyridin-3-yl]propan-2-ol] | > 7.00 | > 7.00 |
| c1ccc(-c2ccc(-c3c[nH]c4ncc(-c5ccc6c(c5)CC[C@@H](N[C@H]5CCCOC5)CC6)cc34)cc2)nc1 [Example 32, (3S)—N-[(7S)-3-[3-(4-Pyridin-2-ylphenyl)-1H-pyrrolo[2,3-b]pyridin-5-yl]-6,7,8,9-tetrahydro-5H-benzo[7]annulen-7-yl]oxan-3-amine] | 6.00 to 7.00 | > 7.00 |
| CO[C@H]1C[C@@H](N[C@H]2CCc3ccc(-c4cnc5[nH]nc(-c6ccc(-c7ncccc7C)cc6)c5c4)cc3CC2)C1 [Example 131, (7S)-2-{3-[4-(3-Methylpyridin-2-yl)phenyl]-1H-pyrazolo[3,4-b]pyridin-5-yl}-N-[cis-3-methoxycyclobutyl]-6,7,8,9-tetrahydro-5H-benzo[7]annulen-7-amine] | 6.00 to 7.00 | > 7.00 |
| O=C(c1cccnc1-c1ccc(-c2n[nH]c3ncc(-c4ccc5c(c4)CC[C@@H](N4C6COCC4C6)CC5)cc23)cc1)N1CCCC1 [Example 4, 6-[(7S)-2-(3-{4-[3-(Pyrrolidine-1-carbonyl)pyridin-2-yl]phenyl}-1H-pyrazolo[3,4-b]pyridin-5-yl)-6,7,8,9-tetrahydro-5H-benzo[7]annulen-7-yl]-3-oxa-6-azabicyclo[3.1.1]heptane] | 6.00 to 7.00 | > 7.00 |
| CC(C)(C#N)c1cccnc1-c1ccc(-c2c[nH]c3ncc(-c4ccc5c(c4)CC[C@@H](N4C6COCC4C6)CC5)cc23)cc1 [Example 21, 2-Methyl-2-[2-[4-[5-[(7S)-7-(3-oxa-6-azabicyclo[3.1.1]heptan-6-yl)-6,7,8,9-tetrahydro-5H-benzo[7]annulen-3-yl]-1H-pyrrolo[2,3-b]pyridin-3-yl]phenyl]pyridin-3-yl]propanenitrile] | > 7.00 | > 7.00 |
| Cc1cccnc1-c1ccc(-c2c[nH]c3ncc(-c4ccc5c(c4)CC[C@@H](N4C6COCC4C6)CC5)cc23)nc1 [Example 96, 3-Methyl-6′-{5-[(7S)-7-{3-oxa-6-azabicyclo[3.1.1]heptan-6-yl}-6,7,8,9-tetrahydro-5H-benzo[7]annulen-2-yl]-1H-pyrrolo[2,3-b]pyridin-3-yl}-2,3′-bipyridine] | > 7.00 | > 7.00 |
| Cc1cncnc1-c1ccc(-c2n[nH]c3ncc(-c4ccc5c(c4)CC[C@@H](N4C6COCC4C6)CC5)cc23)cc1 [Example 174, 6-[(7S)-2-{3-[4-(5-Methylpyrimidin-4-yl)phenyl]-1H-pyrazolo[3,4-b]pyridin-5-yl}-6,7,8,9-tetrahydro-5H-benzo[7]annulen-7-yl]-3-oxa-6-azabicyclo[3.1.1]heptane] | > 7.00 | > 7.00 |
| COc1cccnc1-c1ccc(-c2n[nH]c3ncc(-c4ccc5c(c4)CC[C@@H](N4C6COCC4C6)CC5)cc23)cc1 [Example 166, 6-[(7S)-2-{3-[4-(3-Methoxypyridin-2-yl)phenyl]-1H-pyrazolo[3,4-b]pyridin-5-yl}-6,7,8,9-tetrahydro-5H-benzo[7]annulen-7-yl]-3-oxa-6-azabicyclo[3.1.1]heptane] | > 7.00 | > 7.00 |
| CN(C)C(=O)c1ccccc1-c1ccc(-c2n[nH]c3ncc(-c4ccc5c(c4)CC[C@@H](N4C6COCC4C6)CC5)cc23)cc1 [Example 12, N,N-Dimethyl-4′-{5-[(7S)-7-{3-oxa-6-azabicyclo[3.1.1]heptan-6-yl}-6,7,8,9-tetrahydro-5H-benzo[7]annulen-2-yl]-2H-pyrazolo[3,4-b]pyridin-3-yl}-[1,1′-biphenyl]-2-carboxamide] | > 7.00 | > 7.00 |
| C[C@@H]1CCCN1[C@@]1(C)CCc2ccc(-c3cnc4[nH]nc(-c5ccc(-c6ncnn6C)cc5)c4c3)cc2CC1 [Example 112, 1-Methyl-5-(4-{5-[(7S)-7-methyl-7-[(2R)-2-methylpyrrolidin-1-yl]-6,7,8,9-tetrahydro-5H-benzo[7]annulen-2-yl]-1H-pyrazolo[3,4-b]pyridin-3-yl}phenyl)-1H-1,2,4-triazole] | > 7.00 | > 7.00 |
| Cc1ncc(C)c(-c2ccc(-c3c[nH]c4ncc(-c5ccc6c(c5)CC[C@@H](N5C7COCC5C7)CC6)cc34)cc2)n1 [Example 123, 6-[(7S)-2-{3-[4-(2,5-Dimethylpyrimidin-4-yl)phenyl]-1H-pyrrolo[2,3-b]pyridin-5-yl}-6,7,8,9-tetrahydro-5H-benzo[7]annulen-7-yl]-3-oxa-6-azabicyclo[3.1.1]heptane] | > 7.00 | > 7.00 |
| Cn1nccc1-c1ccc(-c2n[nH]c3ncc(-c4ccc5c(c4)CC[C@@H](N4C6COCC4C6)CC5)cc23)cc1 [Example 109, 6-[(7S)-2-{3-[4-(1-Methyl-1H-pyrazol-5-yl)phenyl]-1H-pyrazolo[3,4-b]pyridin-5-yl}-6,7,8,9-tetrahydro-5H-benzo[7]annulen-7-yl]-3-oxa-6-azabicyclo[3.1.1]heptane] | > 7.00 | > 7.00 |
| O=C(c1cccnc1-c1ccc(-c2c[nH]c3ncc(-c4ccc5c(c4)CC[C@@H](N4C6COCC4C6)CC5)cc23)cc1)N1CCCC1 [Example 171, 6-[(7S)-2-(3-{4-[3-(Pyrrolidine-1-carbonyl)pyridin-2-yl]phenyl}-1H-pyrrolo[2,3-b]pyridin-5-yl)-6,7,8,9-tetrahydro-5H-benzo[7]annulen-7-yl]-3-oxa-6-azabicyclo[3.1.1]heptane] | > 7.00 | > 7.00 |
| Cc1nc(-c2ccc(-c3n[nH]c4ncc(-c5ccc6c(c5)CC[C@@H](N5C7COCC5C7)CC6)cc34)cc2)n(C)n1 [Example 23, 6-[(7S)-2-{3-[4-(1,3-Dimethyl-1H-1,2,4-triazol-5-yl)phenyl]-1H-pyrazolo[3,4-b]pyridin-5-yl}-6,7,8,9-tetrahydro-5H-benzo[7]annulen-7-yl]-3-oxa-6-azabicyclo[3.1.1]heptane] | > 7.00 | > 7.00 |
| Cc1nccnc1-c1ccc(-c2n[nH]c3ncc(-c4ccc5c(c4)CC[C@@H](N4C6COCC4C6)CC5)cc23)cc1 [Example 175, 6-[(7S)-2-{3-[4-(3-Methylpyrazin-2-yl)phenyl]-1H-pyrazolo[3,4-b]pyridin-5-yl}-6,7,8,9-tetrahydro-5H-benzo[7]annulen-7-yl]-3-oxa-6-azabicyclo[3.1.1]heptane] | > 7.00 | > 7.00 |
| CC(C)(O)c1ccccc1-c1ccc(-c2n[nH]c3ncc(-c4ccc5c(c4)CC[C@@H](N4C6COCC4C6)CC5)cc23)cn1 [Example 113, 2-[2-(5-{5-[(7S)-7-{3-Oxa-6-azabicyclo[3.1.1]heptan-6-yl}-6,7,8,9-tetrahydro-5H-benzo[7]annulen-2-yl]-1H-pyrazolo[3,4-b]pyridin-3-yl}pyridin-2-yl)phenyl]propan-2-ol] | > 7.00 | > 7.00 |
| FC(F)(F)Oc1cccnc1-c1ccc(-c2c[nH]c3ncc(-c4ccc5c(c4)CC[C@@H](N4C6COCC4C6)CC5)cc23)cc1 [Example 103, 6-[(7S)-2-(3-{4-[3-(Trifluoromethoxy)pyridin-2-yl]phenyl}-1H-pyrrolo[2,3-b]pyridin-5-yl)-6,7,8,9-tetrahydro-5H-benzo[7]annulen-7-yl]-3-oxa-6-azabicyclo[3.1.1]heptane] | < 6.00 | > 7.00 |
